Experimental data published in patent US9988400B2 (Genentech, Inc., priority 2013, dated 2018).

Biological target: T1, HEK cells stably transfected with tetracycline inducible hNR1 and hNR2A (Homo sapiens, UniProt Q05586+Q12879)
T1 construct: expressed in transfected cells; host or cells: HEK cells, stably transfected, tetracycline/doxycycline inducible
Assay: Assay 1: Cell-Based Assay, cytosolic calcium response to positive allosteric modulators (with 30 μM glycine and 300 nM L-glutamate, EC30)
Conditions: Table 2; for Max %: responses scaled relative to 100 μM L-glutamate maximal response (100%) and 0 μM L-glutamate (0%); for EC50: cytosolic calcium response, with 30 μM glycine and 300 nM L-glutamate (EC30), — = no plateau was reached
Summary of the method: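 Cells induced 24 h with 7.5 μg mL^−1 doxycycline plus 500 μM (+)-ketamine, loaded 60 min at 37 °C with calcium dye in Mg-free HBSS (1.8 mM Ca, probenecid, 10 μM (+)-ketamine, pH 7.15). Peak RFU over 5 min after compound addition, scaled to 100 μM L-glutamate (100%) and 0 μM (0%); four-parameter Hill fit for EC50, max % if no plateau.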

T1 sequence (Q12879 23-1464, other chains not shown): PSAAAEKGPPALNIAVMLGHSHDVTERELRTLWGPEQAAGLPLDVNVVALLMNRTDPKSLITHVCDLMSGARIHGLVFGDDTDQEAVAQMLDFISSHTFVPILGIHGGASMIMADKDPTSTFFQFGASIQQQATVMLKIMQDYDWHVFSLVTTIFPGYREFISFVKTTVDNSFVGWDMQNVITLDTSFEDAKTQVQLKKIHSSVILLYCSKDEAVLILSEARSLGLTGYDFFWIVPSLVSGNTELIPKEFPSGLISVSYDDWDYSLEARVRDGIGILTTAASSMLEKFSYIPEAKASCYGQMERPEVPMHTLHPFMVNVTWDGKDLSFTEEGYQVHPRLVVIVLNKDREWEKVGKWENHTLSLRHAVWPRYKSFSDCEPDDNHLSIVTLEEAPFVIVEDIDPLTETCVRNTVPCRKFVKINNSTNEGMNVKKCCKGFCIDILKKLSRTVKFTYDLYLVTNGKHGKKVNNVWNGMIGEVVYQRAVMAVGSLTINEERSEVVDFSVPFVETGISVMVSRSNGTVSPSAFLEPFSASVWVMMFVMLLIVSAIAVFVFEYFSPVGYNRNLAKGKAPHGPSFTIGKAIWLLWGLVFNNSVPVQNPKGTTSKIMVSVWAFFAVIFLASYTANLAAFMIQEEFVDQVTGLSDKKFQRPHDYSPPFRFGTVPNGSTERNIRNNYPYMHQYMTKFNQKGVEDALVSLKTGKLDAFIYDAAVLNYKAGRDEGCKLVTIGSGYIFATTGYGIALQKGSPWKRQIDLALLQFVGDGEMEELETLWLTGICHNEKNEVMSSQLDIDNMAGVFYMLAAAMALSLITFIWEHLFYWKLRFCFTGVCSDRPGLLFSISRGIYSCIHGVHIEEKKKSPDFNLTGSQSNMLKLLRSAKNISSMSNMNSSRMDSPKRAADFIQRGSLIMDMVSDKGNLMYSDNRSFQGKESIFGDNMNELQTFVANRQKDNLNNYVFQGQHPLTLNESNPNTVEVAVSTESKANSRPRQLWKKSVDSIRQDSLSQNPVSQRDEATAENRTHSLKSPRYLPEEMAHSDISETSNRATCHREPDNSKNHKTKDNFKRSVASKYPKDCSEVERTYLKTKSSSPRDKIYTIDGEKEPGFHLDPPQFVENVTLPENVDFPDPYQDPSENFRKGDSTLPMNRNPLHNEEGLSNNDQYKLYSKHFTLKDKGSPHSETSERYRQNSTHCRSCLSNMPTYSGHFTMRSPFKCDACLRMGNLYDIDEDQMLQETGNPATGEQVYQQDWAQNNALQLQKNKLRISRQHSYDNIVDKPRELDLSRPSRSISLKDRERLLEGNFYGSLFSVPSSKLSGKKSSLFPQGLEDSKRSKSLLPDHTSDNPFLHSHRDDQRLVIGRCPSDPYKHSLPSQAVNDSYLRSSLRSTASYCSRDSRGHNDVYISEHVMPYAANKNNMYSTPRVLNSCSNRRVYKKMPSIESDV

Max % | EC50 | SMILES
42.2% | 5.7 µM | Cc1sc2nc(COc3ccc(F)cc3)cc(=O)n2c1-c1cncnc1 [Example 4.5, 7-((4-fluorophenoxy)methyl)-2-methyl-3-(pyrimidin-5-yl)-5H-thiazolo[3,2-a]pyrimidin-5-one]
40.8% | 4.8 µM | Cc1sc2nc(COc3ccc(F)cc3)cc(=O)n2c1-c1ncco1 [Example 4.11, 7-((4-fluorophenoxy)methyl)-2-methyl-3-(oxazol-2-yl)-5H-thiazolo[3,2-a]pyrimidin-5-one]
50% | 13.9 µM | Cc1sc2nc(COc3ccc(F)cc3)cc(=O)n2c1-c1ccn[nH]1 [Example 4.15, 7-((4-fluorophenoxy)methyl)-2-methyl-3-(1H-pyrazol-5-yl)-5H-thiazolo[3,2-a]pyrimidin-5-one]
46.2% |  | Cc1sc2nc(COc3ccc(F)cc3)cc(=O)n2c1-c1nnc[nH]1 [Example 4.16, 7-((4-fluorophenoxy)methyl)-2-methyl-3-(4H-1,2,4-triazol-3-yl)-5H-thiazolo[3,2-a]pyrimidin-5-one]
40.3% |  | Cc1sc2nc(COc3ccc(F)cc3)cc(=O)n2c1C1CC1 [Example 4.17, 3-cyclopropyl-7-[(4-fluorophenoxy)methyl]-2-methyl-thiazolo[3,2-a]pyrimidin-5-one]
109% | 2.8 µM | Cc1sc2nc(COc3ccc(F)cc3)cc(=O)n2c1C1CC1C (stereo not drawn) [Example 4.25, 7-(4-Fluorophenoxymethyl)-2-methyl-3-(2-methylcyclopropyl)-5H-[1,3]thiazolo[3,2-a]pyrimidin-5-one]
103% |  | COCC1CC1c1c(C)sc2nc(COc3ccc(F)cc3)cc(=O)n12 (stereo not drawn) [Example 4.27, 7-(4-Fluorophenoxymethyl)-3-[2-(methoxymethyl)cyclopropyl]-2-methyl-5H-[1,3]thiazolo[3,2-a]pyrimidin-5-one]
89% | 3.4 µM | Cc1sc2nc(COc3ccc(F)cc3)cc(=O)n2c1C1CC1CF (stereo not drawn) [Example 4.28, 3-(2-(fluoromethyl)cyclopropyl)-7-((4-fluorophenoxy)methyl)-2-methyl-5H-thiazolo[3,2-a]pyrimidin-5-one]
75.4% | 15.5 µM | Cc1sc2nc(COc3ccc(F)cc3)cc(=O)n2c1CCCO [Example 4.30, 7-(4-Fluorophenoxymethyl)-3-(3-hydroxypropyl)-2-methyl-5H-[1,3]thiazolo[3,2-a]pyrimidin-5-one]
43.3% |  | COCc1c(C)sc2nc(COc3ccc(F)cc3)cc(=O)n12 [Example 4.31, 7-(4-Fluorophenoxymethyl)-3-(methoxymethyl)-2-methyl-5H-[1,3]thiazolo[3,2-a]pyrimidin-5-one]
50.2% |  | Cc1sc2nc(COc3ccc(F)cc3)cc(=O)n2c1C1(O)COC1 [Example 4.32, 7-((4-fluorophenoxy)methyl)-3-(3-hydroxyoxetan-3-yl)-2-methyl-5H-thiazolo[3,2-a]pyrimidin-5-one]
121% | 13.8 µM | Cc1sc2nc(COc3ccc(F)cc3)cc(=O)n2c1C(C)CCO (stereo not drawn) [Example 4.33, 7-(4-Fluorophenoxymethyl)-3-(4-hydroxybutan-2-yl)-2-methyl-5H-[1,3]thiazolo[3,2-a]pyrimidin-5-one]

Further lines, the molecule ahead of its results:

SMILES | Max % | EC50
Cc1sc2nc(COc3ccc(F)cc3)cc(=O)n2c1C(=O)NC(C)CO (stereo not drawn) [Example 1.12, 7-(4-Fluorophenoxymethyl)-N-(1-hydroxypropan-2-yl)-2-methyl-5-oxo-5H-[1,3]thiazolo[3,2-a]pyrimidine-3-carboxamide] | 45.5% | 
Cc1sc2nc(COc3ccc(F)cc3)cc(=O)n2c1C(=O)NCC1COC1 [Example 1.13, 7-((4-fluorophenoxy)methyl)-2-methyl-N-(oxetan-3-ylmethyl)-5-oxo-5H-thiazolo[3,2-a]pyrimidine-3-carboxamide] | 41.6% | 
Cc1sc2nc(COc3ccc(F)cc3)cc(=O)n2c1C(=O)NCCCO [Example 1.14, 7-((4-fluorophenoxy)methyl)-N-(3-hydroxypropyl)-2-methyl-5-oxo-5H-thiazolo[3,2-a]pyrimidine-3-carboxamide] | 42.7% | 
Cc1sc2nc(COc3ccc(F)cc3)cc(=O)n2c1C(=O)NC1CC1 [Example 1.15, N-cyclopropyl-7-((4-fluorophenoxy)methyl)-2-methyl-5-oxo-5H-thiazolo[3,2-a]pyrimidine-3-carboxamide] | 55.1% | 
CONC(=O)c1c(C)sc2nc(COc3ccc(F)cc3)cc(=O)n12 [Example 1.16, 7-((4-fluorophenoxy)methyl)-N-methoxy-2-methyl-5-oxo-5H-thiazolo[3,2-a] pyrimidine-3-carboxamide] | 56.5% | 
CNC(=S)c1c(C)sc2nc(COc3ccc(F)cc3)cc(=O)n12 [Example 1.17, 7-(4-Fluorophenoxymethyl)-N,2-dimethyl-5-oxo-5H-[1,3]thiazolo[3,2-a]pyrimidine-3-carbothioamide] | 68.6% | 4 µM
CCC(=O)c1c(C)sc2nc(COc3ccc(F)cc3)cc(=O)n12 [Example 2.1, 7-((4-fluorophenoxy)methyl)-2-methyl-3-propionyl-5H-thiazolo[3,2-a]pyrimidin-5-one] | 51.3% | 5.2 µM
CCC(O)c1c(C)sc2nc(COc3ccc(F)cc3)cc(=O)n12 (stereo not drawn) [Example 2.2, 7-((4-fluorophenoxy)methyl)-3-(1-hydroxypropyl)-2-methyl-5H-thiazolo[3,2-a]pyrimidin-5-one] | 96.5% | 
Cc1sc2nc(COc3ccc(F)cc3)cc(=O)n2c1C(C)O (stereo not drawn) [Example 2.3, 7-(4-Fluorophenoxymethyl)-3-(1-hydroxyethyl)-2-methyl-5H-[1,3]thiazolo[3,2-a]pyrimidin-5-one] | 49.8% | 12.6 µM
Cc1sc2nc(COc3ccc(F)cc3)cc(=O)n2c1C(C)(C)O [Example 2.4, 7-(4-Fluorophenoxymethyl)-3-(2-hydroxypropan-2-yl)-2-methyl-5H-[1,3]thiazolo[3,2-a]pyrimidin-5-one] | 44.6% | 3 µM
CC(=O)c1c(C)sc2nc(COc3ccc(F)cc3)cc(=O)n12 [Example 2.5, 3-acetyl-7-((4-fluorophenoxy)methyl)-2-methyl-5H-thiazolo[3,2-a]pyrimidin-5-one] | 115% | 32.9 µM
CNC(=O)Cc1c(C)sc2nc(COc3ccc(F)cc3)cc(=O)n12 [Example 2.6, 2-(7-((4-fluorophenoxy)methyl)-2-methyl-5-oxo-5H-thiazolo[3,2-a]pyrimidin-3-yl)-N-methylacetamide] | 59.9% | 19.6 µM
Cc1sc2nc(COc3ccc(F)cc3)cc(=O)n2c1C(=O)C1CC1 [Example 2.7, 3-Cyclopropanecarbonyl-7-(4-fluorophenoxymethyl)-2-methyl-5H-[1,3]thiazolo[3,2-a]pyrimidin-5-one] | 61.3% | 26 µM
C/C(=N\O)c1c(C)sc2nc(COc3ccc(F)cc3)cc(=O)n12 [Example 2.8, 7-(4-Fluorophenoxymethyl)-3-[1-(hydroxyimino)ethyl]-2-methyl-5H-[1,3]thiazolo[3,2-a]pyrimidin-5-one] | 137% | 
Cc1sc2nc(COc3ccc(F)cc3)cc(=O)n2c1C(=O)C1COC1 [Example 2.9, 7-((4-fluorophenoxy)methyl)-2-methyl-3-(oxetane-3-carbonyl)-5H-thiazolo[3,2-a]pyrimidin-5-one] | 56.4% | 
Cc1sc2nc(COc3ccc(F)cc3)cc(=O)n2c1C(O)C(F)(F)F (stereo not drawn) [Example 2.10, 7-((4-fluorophenoxy)methyl)-2-methyl-3-(2,2,2-trifluoro-1-hydroxyethyl)-5H-thiazolo[3,2-a]pyrimidin-5-one] | 119% | 
Cc1sc2nc(COc3ccc(F)cc3)cc(=O)n2c1C(=O)C(F)(F)F [Example 2.11, 7-(4-Fluorophenoxymethyl)-2-methyl-3-(trifluoroacetyl)-5H-[1,3]thiazolo[3,2-a]pyrimidin-5-one] | 87.4% | 
CCNC(=O)c1c(C2CC2)sc2nc(COc3ccc(F)cc3)cc(=O)n12 [Example 3.1, 2-cyclopropyl-N-ethyl-7-((4-fluorophenoxy)methyl)-5-oxo-5H-thiazolo[3,2-a]pyrimidine-3-carboxamide] | 56.2% | 41 µM
CNC(=O)c1c(C(F)(F)F)sc2nc(COc3ccc(F)cc3)cc(=O)n12 [Example 3.2, 7-(4-Fluorophenoxymethyl)-N-methyl-5-oxo-2-(trifluoromethyl)-5H-[1,3]thiazolo[3,2-a]pyrimidine-3-carboxamide] | 42.7% | 10.1 µM
CNC(=O)c1c(C2CC2)sc2nc(COc3ccc(F)cc3)cc(=O)n12 [Example 3.3, 2-Cyclopropyl-7-(4-fluorophenoxymethyl)-N-methyl-5-oxo-5H-[1,3]thiazolo[3,2-a]pyrimidine-3-carboxamide] | 61.8% | 
CCNC(=O)c1c(C(F)(F)F)sc2nc(COc3ccc(F)cc3)cc(=O)n12 [Example 3.4, N-Ethyl-7-(4-fluorophenoxymethyl)-5-oxo-2-(trifluoromethyl)-5H-[1,3]thiazolo[3,2-a]pyrimidine-3-carboxamide] | 44.6% | 
CNC(=O)c1csc2nc(COc3ccc(F)cc3)cc(=O)n12 [Example 3.5, 7-((4-fluorophenoxy)methyl)-N-methyl-5-oxo-5H-thiazolo[3,2-a]pyrimidine-3-carboxamide] | 65.6% | 
CCNC(=O)c1c(C)sc2nc(COc3ccc(F)cn3)cc(=O)n12 [Example 3.6, N-ethyl-7-[[(5-fluoropyridin-2-yl)oxy]methyl]-2-methyl-5-oxo-5H-[1,3]thiazolo[3,2-a]pyrimidine-3-carboxamide] | 68% | 
